pIC50: −log10 of the molar value. Activity calls are given as the source filed them. The calls are words filed in the database; no cut-off is given here.
How the values were obtained:
[1] = MRT (0 to infinity) in Sprague-Dawley rat at 35 mg/kg, ip measured upto 24 hrs by LC-MS/MS analysis; type: ADME, organism-based; settings: in vivo
[2] = Cmax in Sprague-Dawley rat at 35 mg/kg, ip measured upto 24 hrs by LC-MS/MS analysis; type: ADME, organism-based; settings: in vivo
Huh-7 [3] = experiment: Antitumor activity against human Huh-7 cells xenografted in immunodeficient male NSG mouse assessed as reduction in CTGF level at 35 mg/kg, ip administered every 3 days for 24 days by Western blot analysis; type: functional, organism-based; settings: time 24.0 day
[4] = target: T1, von Hippel-Lindau disease tumor suppressor/Transcriptional coactivator YAP1 (Homo sapiens, UniProt P40337+P46937); experiment: PROTAC activity at YAP/VHL in human Huh-7 cells assessed as suppression of CTGF expression at 10 to 20 uM measured for 24 hrs by Western blot analysis relative to control; type: cell-based; settings: dose 10-20 µM
Target sequence in this assay (P40337 whole entry, looked up): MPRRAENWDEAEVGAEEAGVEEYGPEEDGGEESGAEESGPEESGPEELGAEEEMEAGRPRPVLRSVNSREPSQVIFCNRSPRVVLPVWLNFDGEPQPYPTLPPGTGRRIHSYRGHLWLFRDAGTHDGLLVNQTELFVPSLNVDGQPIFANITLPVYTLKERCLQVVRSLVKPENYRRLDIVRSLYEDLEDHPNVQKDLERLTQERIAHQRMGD
Target sequence in this assay (P46937 whole entry, looked up): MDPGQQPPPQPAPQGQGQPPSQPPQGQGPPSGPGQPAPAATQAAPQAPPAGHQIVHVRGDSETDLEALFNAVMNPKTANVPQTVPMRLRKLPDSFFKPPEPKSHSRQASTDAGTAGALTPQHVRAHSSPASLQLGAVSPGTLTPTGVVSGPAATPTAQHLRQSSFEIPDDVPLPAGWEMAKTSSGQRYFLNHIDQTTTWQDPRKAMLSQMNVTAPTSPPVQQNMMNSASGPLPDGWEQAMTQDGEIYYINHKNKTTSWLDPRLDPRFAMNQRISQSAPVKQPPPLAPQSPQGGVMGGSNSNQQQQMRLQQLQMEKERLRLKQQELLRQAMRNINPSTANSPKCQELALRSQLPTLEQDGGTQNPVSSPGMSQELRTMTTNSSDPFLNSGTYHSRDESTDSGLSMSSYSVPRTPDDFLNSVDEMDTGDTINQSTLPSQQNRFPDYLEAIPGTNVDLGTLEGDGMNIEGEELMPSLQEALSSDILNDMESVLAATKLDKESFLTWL

[5] = target: T1, von Hippel-Lindau disease tumor suppressor/Transcriptional coactivator YAP1; experiment: PROTAC activity at YAP/VHL in human NCI-H226 cells assessed as reduction in CTGF expression incubated for 48 hrs by Western blot analysis; type: cell-based; settings: dose 2.5-20 µM
Target sequence in this assay (P40337 whole entry, looked up): as the sequence (P40337 whole entry, looked up) above
Target sequence in this assay (P46937 whole entry, looked up): as the sequence (P46937 whole entry, looked up) above

[6] = AUClast in Sprague-Dawley rat at 35 mg/kg, ip measured upto 24 hrs by LC-MS/MS analysis; type: ADME, organism-based; settings: in vivo
[7] = Toxicity in immunodeficient male NSG mouse xenografted with human Huh-7 cells assessed as change in total bilirubin level in liver at 35 mg/kg, ip administered every 3 days for 24 days; type: organism-based; settings: in vivo, 576 h, time 24 day
[8] = target: T1, von Hippel-Lindau disease tumor suppressor/Transcriptional coactivator YAP1; experiment: PROTAC activity at YAP/VHL in human Huh-7 cells assessed as induction of YAP degradation at 20 uM pretreated with VHL ligand 2 for 2 hrs followed by compound addition and measured after 24 hrs by Western blot analysis; type: cell-based
Target sequence in this assay (P40337 whole entry, looked up): as the sequence (P40337 whole entry, looked up) above
Target sequence in this assay (P46937 whole entry, looked up): as the sequence (P46937 whole entry, looked up) above

[9] = Toxicity in immunodeficient male NSG mouse xenografted with human Huh-7 cells assessed as change in AST level in liver at 35 mg/kg, ip administered every 3 days for 24 days; type: organism-based; settings: in vivo, 576 h, time 24 day
[10] = target: Transcriptional coactivator YAP1 (Homo sapiens) (UniProt P46937); experiment: Inhibition of YAP nuclear localization in human Huh-7 cells assessed as decrease in mean YAP intensity incubated for 12 hrs by immunofluorescence based microscopic analysis; type: cell-based; settings: dose <= 20.0 µM
[11] = target: T1, von Hippel-Lindau disease tumor suppressor/Transcriptional coactivator YAP1; experiment: PROTAC activity at YAP/VHL in human Huh-7 cells assessed as induction of YAP degradation at 20 uM incubated at 48 hrs by Western blot analysis; type: cell-based
Target sequence in this assay (P40337 whole entry, looked up): as the sequence (P40337 whole entry, looked up) above
Target sequence in this assay (P46937 whole entry, looked up): as the sequence (P46937 whole entry, looked up) above

[12] = target: T1, von Hippel-Lindau disease tumor suppressor/Transcriptional coactivator YAP1; experiment: PROTAC activity at YAP/VHL in human NCI-H226 cells assessed as downregulation of YAP level at 20 uM incubated at 24 hrs by Western blot analysis; type: cell-based
Target sequence in this assay (P40337 whole entry, looked up): as the sequence (P40337 whole entry, looked up) above
Target sequence in this assay (P46937 whole entry, looked up): as the sequence (P46937 whole entry, looked up) above

[13] = Half life in Sprague-Dawley rat at 35 mg/kg, ip measured upto 24 hrs by LC-MS/MS analysis; type: ADME, organism-based; settings: in vivo
[14] = target: T1, von Hippel-Lindau disease tumor suppressor/Transcriptional coactivator YAP1; experiment: PROTAC activity at YAP/VHL in human NCI-H226 cells assessed as induction of YAP degradation at 2.5 to 20 uM incubated for 48 hrs by Western blot analysis relative to control; type: cell-based; settings: dose 2.5-20 µM
Target sequence in this assay (P40337 whole entry, looked up): as the sequence (P40337 whole entry, looked up) above
Target sequence in this assay (P46937 whole entry, looked up): as the sequence (P46937 whole entry, looked up) above

[15] = target: T1, von Hippel-Lindau disease tumor suppressor/Transcriptional coactivator YAP1; experiment: PROTAC activity at YAP/VHL in human Huh-7 cells assessed as downregulation of YAP level at 20 uM incubated at 24 hrs by Western blot analysis; type: cell-based
[16] = target: T1, von Hippel-Lindau disease tumor suppressor/Transcriptional coactivator YAP1; experiment: PROTAC activity at YAP/VHL in human Huh-7 cells assessed as induction of YAP degradation at 20 uM measured for 24 hrs in presence of 4-(3,4-dimethoxyphenyl)-2-phenyl-5,7-dihydro-6H-benzo[b]pyrido[2,3-d]azepin-6-one by Western blot analysis; type: cell-based
NCI-H226 [17] = experiment: Antiproliferative activity against NF2 deficient- human NCI-H226 cells assessed as cell growth inhibition incubated for 4 days by CCK-8 assay; type: functional, cell-based; settings: NCI-H226, 96 h
[18] = target: T1, von Hippel-Lindau disease tumor suppressor/Transcriptional coactivator YAP1; experiment: PROTAC activity at YAP/VHL in human NCI-H226 cells assessed as reduction in YAP level at 10 uM incubated for 48 hrs by Western blot analysis relative to control; type: cell-based; design: scale not given: the % may be the effect or the level left
[19] = target: T1, von Hippel-Lindau disease tumor suppressor/Transcriptional coactivator YAP1; experiment: PROTAC activity at YAP/VHL in human Huh-7 cells assessed as induction of YAP degradation by measuring half life at 20 uM incubated at 48 hrs by Western blot analysis; type: cell-based
[20] = target: T1, von Hippel-Lindau disease tumor suppressor/Transcriptional coactivator YAP1; experiment: PROTAC activity at YAP/VHL in human Huh-7 cells assessed as reduction on CTGF expression incubated for 48 hrs by Western blot analysis; type: cell-based; settings: dose 2.5-20 µM
[21] = target: T2, von Hippel-Lindau disease tumor suppressor/WW domain-containing transcription regulator protein 1 (Homo sapiens) (UniProt P40337+Q9GZV5); experiment: PROTAC activity at TAZ/VHL in human Huh-7 cells assessed as induction of TAZ degradation at 5 to 20 uM incubated for 24 hrs by Western blot analysis; type: cell-based; settings: dose 5-20 µM
Huh-7 [22] = experiment: Antiproliferative activity against human Huh-7 cells overexpressing YAP assessed as suppression of cell proliferation incubated for 4 days by CCK-8 assay; type: functional, cell-based; settings: time 4.0 day
[23] = Tmax in Sprague-Dawley rat at 35 mg/kg, ip measured upto 24 hrs by LC-MS/MS analysis; type: ADME, organism-based; settings: in vivo
[24] = target: T1, von Hippel-Lindau disease tumor suppressor/Transcriptional coactivator YAP1; experiment: PROTAC activity at YAP/VHL in human Huh-7 cells assessed as induction of YAP degradation incubated for 48 hrs by Western blot analysis; type: cell-based
Target sequence in this assay (P40337 whole entry): as the sequence (P40337 whole entry, looked up) above
Target sequence in this assay (P46937 whole entry): as the sequence (P46937 whole entry, looked up) above

NCI-H2452 = experiment: Antiproliferative activity against human NCI-H2452 cells expressing NF2 assessed as reduction in cell viability incubated for 4 days by CCK-8 assay; type: functional, cell-based; settings: time 4.0 day
[25] = target: Transcriptional coactivator YAP1 (Homo sapiens) (UniProt P46937); experiment: Inhibition of YAP nuclear localization in human Huh-7 cells assessed as decrease in integrated YAP intensity incubated for 12 hrs by immunofluorescence based microscopic analysis; type: cell-based; settings: dose <= 20.0 µM
Huh-7 [26] = experiment: Antitumor activity against human Huh-7 cells xenografted in immunodeficient male NSG mouse assessed as inhibition of tumor growth at 35 mg/kg, ip administered for 3 days; type: functional, organism-based; settings: time 3.0 day
Huh-7 [27] = experiment: Antiproliferative activity against human Huh-7 cells overexpressing YAP assessed as cell growth inhibition incubated for 4 days by CCK-8 assay; type: functional, cell-based; settings: Huh-7, 96 h
[28] = AUC (0 to infinity) in Sprague-Dawley rat at 35 mg/kg, ip measured upto 24 hrs by LC-MS/MS analysis; type: ADME, organism-based; settings: in vivo
NCI-H226 [29] = experiment: Antiproliferative activity against NF2 deficient- human NCI-H226 cells assessed as maximum cell growth inhibition incubated for 4 days by CCK-8 assay relative to control; type: functional; settings: time 4 day
[30] = target: T1, von Hippel-Lindau disease tumor suppressor/Transcriptional coactivator YAP1; experiment: PROTAC activity at YAP/VHL in human NCI-H226 cells assessed as reduction in CTGF expression at 5 uM incubated for 48 hrs by Western blot analysis; type: cell-based
Huh-7 [31] = experiment: Antitumor activity against human Huh-7 cells xenografted in immunodeficient male NSG mouse assessed as tumor growth inhibition at 35 mg/kg, ip administered every 3 days for 24 days; type: functional; settings: Huh-7, 576 h, time 24 day, read-out: TGI
Huh-7 [32] = experiment: Antitumor activity against human Huh-7 cells xenografted in immunodeficient male NSG mouse assessed as reduction in CYR61 level at 35 mg/kg, ip administered every 3 days for 24 days by Western blot analysis; type: functional, organism-based; settings: time 24.0 day
[33] = target: T2, von Hippel-Lindau disease tumor suppressor/WW domain-containing transcription regulator protein 1 (Homo sapiens); experiment: PROTAC activity at TAZ/VHL in human Huh-7 cells assessed as reduction in TAZ expression incubated for 24 hrs by Western blot analysis; type: cell-based; settings: dose 5-20 µM

Sequence of Transcriptional coactivator YAP1 (Homo sapiens) (P46937 whole entry): as the sequence (P46937 whole entry, looked up) above
T2 sequence (P40337 whole entry, looked up, the tested form may be a part): as the sequence (P40337 whole entry, looked up) above
T2 sequence (Q9GZV5 whole entry, looked up, the tested form may be a part): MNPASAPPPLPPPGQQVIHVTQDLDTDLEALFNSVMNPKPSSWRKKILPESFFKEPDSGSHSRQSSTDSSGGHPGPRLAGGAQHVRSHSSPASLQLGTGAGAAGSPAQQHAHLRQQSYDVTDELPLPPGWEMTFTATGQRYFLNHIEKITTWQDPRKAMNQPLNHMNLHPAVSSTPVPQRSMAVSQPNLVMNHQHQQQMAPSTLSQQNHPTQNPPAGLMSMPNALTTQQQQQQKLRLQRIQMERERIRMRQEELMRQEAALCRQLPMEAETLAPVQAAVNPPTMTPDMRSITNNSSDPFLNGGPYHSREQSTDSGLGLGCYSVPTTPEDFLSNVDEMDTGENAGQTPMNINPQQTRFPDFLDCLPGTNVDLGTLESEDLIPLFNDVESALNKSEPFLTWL

In the case of `COc1cc(-c2cc(-c3ccccc3)nc3c2CC(=O)Nc2ccccc2-3)ccc1OCCOCCOCCC(=O)N[C@H](C(=O)N1C[C@H](O)C[C@H]1C(=O)N[C@@H](C)c1ccc(-c2scnc2C)cc1)C(C)(C)C`, the MRT inf [1] was 19.9 h, the Cmax [2] was 193 ng/mL and the Activity (Huh-7 [3]) was “Active”. The Activity [4] was “Active”, the Activity [5] was “Dose-Dependent Effect” and the AUC(0-t) at 24 h [6] was 1940 ng·h/mL. The Activity [7] was “Non-Toxic”, the Activity [8] was “Active” and the Activity [9] was “Non-Toxic”. For the same compound, the inhibition [10] was “Dose-Dependent Effect”, the Activity [11] was 98% and the Activity [12] was “Active”. The half-life [13] was 798 min, the Emax [14] was 97% and the Activity [15] was “Active”. For the same compound, the Activity [16] was “Active”, the pIC50 (NCI-H226 [17]) was 4.82 and the Activity [18] was 80%. The T1/2 [19] was 16.5 h, the Activity [20] was “Dose-Dependent Effect” and the Activity [21] was “Active”. The Activity (Huh-7 [22]) was “Active”, the Tmax [23] was 3.33 h and the DC50 [24] was 4.3 µM. For the same compound, the Activity (NCI-H2452) was “inactive”, the inhibition [25] was “Dose-Dependent Effect” and the Activity (Huh-7 [26]) was “Active”. The pIC50 (Huh-7 [27]) was 5.54, the AUC(0-inf) [28] was 2690 ng·h/mL and the “inhibition (INH)” value (NCI-H226 [29]) was 60%. For the same compound, the Activity [30] was “Active”, the inhibition in vivo at 35 mg/kg (Huh-7 [31]) was 82% and the Activity (Huh-7 [32]) was “Active”. The Activity [33] was “Dose-Dependent Effect”.

— ChEMBL document CHEMBL5584348, “Exploring Degradation of Intrinsically Disordered Protein Yes-Associated Protein Induced by Proteolysis TArgeting Chimeras” (J Med Chem, 2024)
